This is an account of results in patent publication US10125125B2, “N-(heteroaryl)-sulfonamide derivatives useful as S100-inhibitors” (Active Biotech AB, priority 2013, dated 2018).

This assay addresses biotinylated human S100A9 : rhRAGE-Fc interaction (Homo sapiens (Human), UniProt P06702). Description: AlphaScreen inhibition assay, Biot-hS100A9:hRAGE-Fc (S100A9-RAGE inhibition assay). The format is binding. An excerpt: FIG. 1 is a schematic representation of an assay of the inhibition of the interaction between biotinylated human S100A9 and human RAGE-Fc using a small molecule S100A9 binder.
Inhibition Assay, Biot-hS100A9:hRAGE-Fc
The AlphaScreen (Amplified Luminescent Proximity Homogeneous Assay) contains two types of beads, Alpha Donor beads and Acceptor beads (PerkinElmer). Upon laser excitation at 680 nm a photosensitizer in the Donor bead converts ambient oxygen to a more excited singlet state. The singlet oxygen molecule diffuses (maximum 200 nm) to react with a thioxene derivative in the Acceptor bead and generates a chemiluminescence reaction. Fluorophores in the Acceptor bead subsequently emit light at 520-620 nm which can be detected in the EnVision® Multilabel plate Reader (PerkinElmer). The beads are light sensitive and all work with the beads is performed under subdued light conditions or using green filters on light sources (Roscolux Chroma Green #389, Rosco).
In the AlphaScreen Inhibition Assay described here, protein A (Staphylococcus aureus) conjugated Acceptor beads are used together with streptavidin coated Donor beads (Perkin Elmer 6760617M). The Acceptor beads are pre-incubated with Fc-tagged recombinant human RAGE (rhRAGE-Fc) allowing binding of the rhRAGE-Fc to protein A on the beads. Biotinylated human S100A9 (biot-hS100A9) is pre-incubated with the low molecular test compounds. The pre-mixes are then added to the wells of a micro-plate and incubated allowing interaction between biot-hS100A9 and rhRAGE-Fc. Subsequent addition of streptavidin coated Donor beads causes binding of the streptavidin to the biotinylated hS100A9. After an additional incubation the signal is measured.
Without inhibitory compounds, the interaction of biot-hS100A9 to rhRAGE-Fc will bring the Acceptor and Donor beads in close proximity thus generating a high signal. With an inhibitor present the complex will not form resulting in a decreased signal.
Chemicals and reagents. • AlphaScreen® General IgG (Protein A) Detection Kit, (PerkinElmer 6760617M) • HBS-P buffer (GE Healthcare, BR-1003-68) • HBS-N buffer (GE Healthcare, BR-1003-69) • CaCl2 in HBS-P • ZnCl2 in Milli-Q water • DMSO • Biotinylated hS100A9, (biotinylated via cystein by EZ-link Iodoacetyl-PEG2-Biotin reagent (Pierce no. 21334), in HBS-N • rhRAGE-Fc (R&D Systems, 1145-RG-50), in HBS-P
The AlphaScreen assay method is used for screening of the inhibitory effect of different compound samples at fixed concentrations or for IC50 determination by varying the compound concentrations. Samples of test compounds and references are prepared from solutions in DMSO. Relevant reference inhibitors and DMSO are used as controls for defined inhibition and non-inhibition, respectively in the assay. The percent inhibition in assay for test compounds and references are calculated by comparing their obtained assay signals with the signal values for the control with only DMSO (no compound).
Assay concentration of biotinylated hS100A9 and rhRAGE-Fc are batch dependent, and are determined and defined by separate cross-titration experiments using this AlphaScreen inhibition method to verify the optimal setup regarding signal strength and achievement of a defined inhibition with relevant reference compounds. The Final assay concentrations of Acceptor and Donor beads are 20 μg/mL.
Experimental Set Up for Screening, Preparation of Solutions and Beads.
Assay buffer is prepared by adding CaCl2 and ZnCl2 to HBS-P and is used freshly prepared in the experiment.
Biotin-hS100A9 solution for the experiment is prepared by dilution of appropriate amount of stock solution biot-hS100A9 in assay buffer (with CaCl2 and ZnCl2) and incubation in room temperature for 30 minutes.
rhRAGE-Fc solution for the experiment is prepared by dilution appropriate amount of rhRAGE-Fc stock in assay buffer.
Protein A Acceptor beads are diluted in assay buffer and are added to an equal volume of the prepared diluted rhRAGE-Fc solution.

By IC50 is commonly meant the concentration that inhibits the measured activity by half.

Some results are limits rather than exact numbers.

biotinylated human S100A9 : rhRAGE-Fc interaction, sequence (P06702 whole entry): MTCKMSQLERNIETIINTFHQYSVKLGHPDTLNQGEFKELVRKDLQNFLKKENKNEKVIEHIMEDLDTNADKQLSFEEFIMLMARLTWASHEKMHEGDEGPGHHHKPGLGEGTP

On to `CCS(=O)(=O)c1cnc(NS(=O)(=O)Cc2cccc(Cl)c2)c(O)n1` [Example 88, 1-(3-chlorophenyl)-N-[5-(ethanesulfonyl)-3-hydroxypyrazin-2-yl]methane-sulfonamide], for which the IC50 was greater than 1000 nM. As for `O=S(=O)(Cc1ccc(C(F)(F)F)cc1)Nc1ccc(Cl)nc1O` [Example 178, N-(6-chloro-2-hydroxypyridin-3-yl)-1-[4-(trifluoromethyl)phenyl]methane-sulfonamide], the IC50 is greater than 1000 nM. Under `O=S(=O)(Cc1cc(Cl)cc(Cl)c1)Nc1cnc(Cl)nc1O` [Example 107, N-(2-chloro-4-hydroxypyrimidin-5-yl)-1-(3,5-dichlorophenyl)methanesulfonamide] stands 4000 nM; under `CS(=O)(=O)c1nc(NS(=O)(=O)Cc2cc(Cl)cc(Cl)c2)c(O)cc1Cl` [Example 134, N-(5-chloro-3-hydroxy-6-methanesulfonylpyridin-2-yl)-1-(3,5-dichlorophenyl)-methanesulfonamide], 530 nM.

For the compound `CS(=O)(=O)c1cc(O)c(NS(=O)(=O)c2cc(Cl)cc(Cl)c2)cn1` [Example 155, 3,5-dichloro-N-(4-hydroxy-6-methanesulfonylpyridin-3-yl)benzene-1-sulfonamide], the IC50 was greater than 1000 nM.

As for `O=S(=O)(Cc1cc(Cl)cc(Cl)c1)Nc1ccncc1O` [Example 167, 1-(3,5-dichlorophenyl)-N-(3-hydroxypyridin-4-yl)methanesulfonamide], the IC50 is less than 1000 nM. As for `COc1ncc(S(=O)(=O)Nc2nnc(Cl)cc2O)cc1Br` [Example 114, 5-bromo-N-(6-chloro-4-hydroxypyridazin-3-yl)-6-methoxypyridine-3-sulfonamide], the figure is 1000 nM. As for `O=S(=O)(Nc1ncc(Br)nc1O)C(c1cc(Cl)cc(Cl)c1)C(F)(F)F` (racemic) [Example 141, (+/−)-N-(5-bromo-3-hydroxypyrazin-2-yl)-1-(3,5-dichlorophenyl)-2,2,2-trifluoroethane-1-sulfonamide], the figure is less than 1000 nM; as for `O=S(=O)(Cc1cc(Cl)cc(Cl)c1)Nc1nnc(Cl)cc1O` [Example 36, N-(6-chloro-4-hydroxypyridazin-3-yl)-1-(3,5-dichlorophenyl)methanesulfonamide], 100 nM.

Regarding `O=S(=O)(Cc1ccc(Cl)c(Cl)c1)Nc1cnc(Cl)cc1O` [Example 70, N-(6-chloro-4-hydroxypyridin-3-yl)-1-(3,4-dichlorophenyl)methanesulfonamide], the IC50 came to 800 nM. Under `CCS(=O)(=O)c1cc(O)c(NS(=O)(=O)Cc2cc(Cl)cc(Cl)c2)nn1` [Example 111, 1-(3,5-dichlorophenyl)-N-[6-(ethanesulfonyl)-4-hydroxypyridazin-3-yl]methanesulfonamide] stands 100 nM. Under `N#Cc1ccc(Cl)c(CS(=O)(=O)Nc2nnc(Cl)cc2O)c1` [Example 85, N-(6-chloro-4-hydroxypyridazin-3-yl)-1-(2-chloro-5-cyanophenyl)methane-sulfonamide] stands 980 nM; under `O=S(=O)(Cc1ccc(Cl)c(Cl)c1)Nc1cc(Cl)cnc1O` [Example 172, N-(5-chloro-2-hydroxypyridin-3-yl)-1-(3,4-dichlorophenyl)methanesulfonamide], 3100 nM; under `CN(C)c1ncc(S(=O)(=O)Nc2ncc(Cl)cc2O)cc1S(C)(=O)=O` [Example 136, N-(5-chloro-3-hydroxypyridin-2-yl)-6-(dimethylamino)-5-methanesulfonylpyridine-3-sulfonamide], greater than 1000 nM. As for `O=S(=O)(Cc1cc(F)cc(Cl)c1)Nc1nnc(Cl)cc1O` [Example 94, N-(6-chloro-4-hydroxypyridazin-3-yl)-1-(3-chloro-5-fluorophenyl)methane-sulfonamide], the figure is 300 nM.

As to `O=S(=O)(Cc1cc(Cl)cc(Cl)c1)Nc1nc(C(F)(F)F)ncc1O` [Example 157, 1-(3,5-dichlorophenyl)-N-[5-hydroxy-2-(trifluoromethyl)pyrimidin-4-yl]methane-sulfonamide], the IC50 was less than 1000 nM. Consider `O=S(=O)(Nc1cncc(Cl)c1O)c1cc(Cl)cc(Cl)c1` [Example 89, 3,5-dichloro-N-(5-chloro-4-hydroxypyridin-3-yl)benzene-1-sulfonamide], for which the IC50 amounted to 2100 nM. Under `O=S(=O)(Cc1cc(Cl)sc1Cl)Nc1ncc(Cl)cc1O` [Example 20, N-(5-chloro-3-hydroxypyridin-2-yl)-1-(2,5-dichlorothiophen-3-yl)methane-sulfonamide] stands less than 1000 nM; under `O=S(=O)(Nc1nnc(Cl)cc1O)c1cc(Cl)cc(Cl)c1` [Example 95, 3,5-dichloro-N-(6-chloro-4-hydroxypyridazin-3-yl)benzene-1-sulfonamide], 700 nM. As for `O=S(=O)(Nc1ncc(Cl)cc1O)c1cncc(Br)c1` [Example 40, 5-bromo-N-(5-chloro-3-hydroxypyridin-2-yl)pyridine-3-sulfonamide], the figure is 3000 nM. Under `COc1ncc(S(=O)(=O)Nc2cncc(Cl)c2O)cc1Br` [Example 59, 5-bromo-N-(5-chloro-4-hydroxypyridin-3-yl)-6-methoxypyridine-3-sulfonamide] stands 2800 nM. Take `O=S(=O)(Cc1cccc(Cl)c1)Nc1nnc(Cl)cc1O` [Example 96, N-(6-chloro-4-hydroxypyridazin-3-yl)-1-(3-chlorophenyl)methanesulfonamide]: the IC50 worked out at 410 nM.

For the compound `CCN(CC)C(=O)c1cc(Cl)cc(CS(=O)(=O)Nc2nnc(Cl)cc2O)c1` [Example 161, 3-chloro-5-{[(6-chloro-4-hydroxypyridazin-3-yl)sulfamoyl]methyl}-N,N-diethylbenzamide], the IC50 came out at 5100 nM.
